Structures can show the parent of a compound that is named as a salt.
How the values were obtained:
[1] = test system: Caenorhabditis elegans N2; experiment: lowest effective concentration for larval growth inhibition (size below effect threshold); higher = less potent; details: exposure time 48 h
Summary of the method: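 L1 larvae of C. elegans N2 (50 per 96-well) were grown in K-medium with killed bacteria and 1% DMSO, with the chemical at 0.5, 1, 5, 10, 50, 100 or 200 µM, for 48 h at 20°C. Per-worm extinction from the Biosort stood for size and was log-transformed into well means. For each chemical, the lowest effective concentration is the first dose where plate-adjusted mean size falls under the threshold and stays under it at the higher doses, using a threshold of 5.665.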

[2] = test system: Caenorhabditis elegans N2; experiment: mean nematode size ln(EXT) after 48 h, plate-adjusted (DMSO control set to 6) (ln(EXT), control-adjusted); higher = larger nematodes / less growth inhibition; details: exposure time 48 h
Summary of the method: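 Synchronised C. elegans N2 L1 larvae were grown for 48 h at 20°C in K-medium containing killed OP50, 1% DMSO and 0.5–200 µM chemical, at 50 per well and 4–6 wells per treatment. The Biosort recorded extinction for each worm, and a growth model removed debris. Worm size was obtained by natural-logging these values and averaging them per well. For plate adjustment, the vehicle control mean was subtracted and 6 was added.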

Row | Structure (SMILES) | lowest effective concentration [1] [µM] | mean nematode size ln(EXT) (ln) ([2]; 0.5 µM) | mean nematode size ln(EXT) (ln) ([2]; 1 µM) | mean nematode size ln(EXT) (ln) ([2]; 5 µM) | mean nematode size ln(EXT) (ln) ([2]; 10 µM) | mean nematode size ln(EXT) (ln) ([2]; 50 µM) | mean nematode size ln(EXT) (ln) ([2]; 100 µM) | mean nematode size ln(EXT) (ln) ([2]; 200 µM)
1 | CCOP(=O)(OCC)Oc1cc(C)nc(C(C)C)n1 [Diazoxon] | > 200 | 6.19 | 6.09 | 6.08 | 6.06 | 6.05 | 6.1 | 5.93
2 | COc1c(Cl)ccc(Cl)c1C(=O)O [Dicamba] | > 200 | 5.78 | 5.92 | 5.72 | 5.98 | 6.18 | 6.37 | 6.03
3 | O=C(O)C(Cl)Cl [Dichloroacetic acid] | > 200 | 5.56 | 5.97 | 6.02 | 5.89 | 5.98 | 5.92 | 5.7
4 | O=C(O)Cc1ccccc1Nc1c(Cl)cccc1Cl [Diclofenac sodium salt] | > 200 | 5.93 | 5.95 | 5.92 | 5.99 | 5.92 | 5.9 | 5.83
5 | CCOc1nc(F)cc2nc(S(=O)(=O)Nc3c(Cl)cccc3Cl)nn12 [Diclosulam] | > 200 | 6.11 | 6.13 | 6.09 | 6.14 | 6.15 | 6.17 | 5.79
6 | COP(=O)(OC)O/C(C)=C/C(=O)N(C)C [Dicrotophos] | > 200 | 6.11 | 6.42 | 6.04 | 6.07 | 6.05 | 6.05 | 5.85
7 | O=c1[nH]cnc2c1ncn2[C@H]1CC[C@@H](CO)O1 [Didanosine] | > 200 | 5.88 | 5.86 | 5.85 | 5.84 | 5.89 | 5.96 | 5.76
8 | OCCNCCO [Diethanolamine] | > 200 | 6.04 | 6.05 | 6.04 | 6.02 | 6.1 | 6.07 | 5.79
9 | CCOC(=O)c1ccccc1C(=O)OCC [Diethyl phthalate] | > 200 | 5.92 | 5.85 | 5.82 | 5.76 | 5.94 | 5.81 | 5.79
10 | CCOCCOCCO [Diethylene glycol monoethyl ether] | > 200 | 6.02 | 6.03 | 6.07 | 6.05 | 6.03 | 6.06 | 5.76
11 | COCCOCCO [Diethylene glycol monomethyl ether] | > 200 | 5.87 | 5.91 | 5.93 | 5.85 | 5.82 | 5.94 | 5.68
12 | OCCOCCO [Diethylene glycol] | > 200 | 5.91 | 5.95 | 5.92 | 5.86 | 5.92 | 5.78 | 5.69
13 | CCCCC(CC)COC(=O)c1ccccc1C(=O)OCC(CC)CCCC (centres undefined) [Diethylhexyl phthalate] | > 200 | 5.9 | 5.91 | 5.76 | 5.85 | 5.67 | 6.02 | 5.76
14 | CCN(CC)C(=O)c1cccc(C)c1 [Diethyltoluamide] | > 200 | 5.86 | 5.86 | 5.91 | 6.14 | 6 | 5.91 | 5.85
15 | Cn1c(-c2ccccc2)cc(-c2ccccc2)[n+]1C [Difenzoquat metilsulfate] | > 200 | 6.06 | 6.04 | 6.06 | 6.07 | 5.99 | 6.1 | 5.9
16 | CC(C)CCCCCCOC(=O)CCCCC(=O)OCCCCCCC(C)C [Diisononyl adipate] | > 200 | 5.94 | 5.98 | 5.93 | 5.92 | 5.87 | 5.91 | 5.69
17 | COCC(C)N(C(=O)CCl)c1c(C)csc1C (centres undefined) [Dimethenamid] | > 200 | 6.08 | 5.91 | 6.17 | 6.03 | 5.87 | 6.56 | 5.99
18 | CC1=C(C)S(=O)(=O)CCS1(=O)=O [Dimethipin] | > 200 | 5.96 | 5.96 | 5.91 | 5.93 | 5.98 | 6 | 5.93
19 | CNC(=O)CSP(=S)(OC)OC [Dimethoate] | > 200 | 6.23 | 6.15 | 6.18 | 6.23 | 6.24 | 6.21 | 5.95
20 | COC(=O)CCCC(=O)OC [Dimethyl glutarate] | > 200 | 5.91 | 5.94 | 5.9 | 6.02 | 6.01 | 6.04 | 5.78
21 | COC(=O)CC(=O)OC [Dimethyl malonate] | > 200 | 5.85 | 5.89 | 5.88 | 6.13 | 5.87 | 5.89 | 5.75
22 | COC(=O)c1ccccc1C(=O)OC [Dimethyl phthalate] | > 200 | 5.82 | 5.99 | 6.07 | 6.01 | 6.18 | 6.01 | 5.98
23 | COC(=O)CCC(=O)OC [Dimethyl succinate] | > 200 | 5.88 | 5.94 | 5.85 | 6.11 | 5.84 | 5.87 | 5.96
24 | CN(C)C(=O)Cl [Dimethylcarbamoyl chloride] | > 200 | 5.77 | 5.81 | 5.82 | 5.71 | 5.84 | 5.9 | 5.73
25 | CCCCCOC(=O)c1ccccc1C(=O)OCCCCC [Dipentyl phthalate] | > 200 | 5.85 | 5.86 | 5.89 | 5.87 | 5.85 | 5.81 | 5.73
26 | O=C(Oc1ccccc1)c1cccc(C(=O)Oc2ccccc2)c1 [Diphenyl isophthalate] | > 200 | 5.87 | 5.89 | 5.87 | 5.87 | 5.94 | 5.94 | 5.7
27 | CC(CO)OC(C)CO.CC(O)COCC(C)O (centres undefined) [Dipropylene glycol] | > 200 | 5.74 | 5.73 | 5.79 | 5.87 | 5.74 | 5.66 | 5.87

Row | Structure (SMILES) | lowest effective concentration [1] [µM] | mean nematode size ln(EXT) (ln) ([2]; 0.5 µM) | mean nematode size ln(EXT) (ln) ([2]; 1 µM) | mean nematode size ln(EXT) (ln) ([2]; 5 µM) | mean nematode size ln(EXT) (ln) ([2]; 10 µM) | mean nematode size ln(EXT) (ln) ([2]; 50 µM) | mean nematode size ln(EXT) (ln) ([2]; 100 µM) | mean nematode size ln(EXT) (ln) ([2]; 200 µM)
28 | CCCN(CCC)C(=O)SCC [EPTC] | > 200 | 6.11 | 6.22 | 6.09 | 6 | 6.1 | 6.12 | 5.86
29 | CC[C@H]1OC(=O)[C@H](C)[C@@H](O[C@H]2C[C@@](C)(OC)[C@@H](O)[C@H](C)O2)[C@H](C)[C@@H](O[C@@H]2O[C@H](C)C[C@H](N(C)C)[C@H]2O)[C@](C)(O)C[C@@H](C)C(=O)[C@H](C)[C@@H](O)[C@]1(C)O [Erythromycin] | > 200 | 5.95 | 5.89 | 5.94 | 5.9 | 5.86 | 5.92 | 5.84
30 | NCCO [Ethanolamine] | > 200 | 5.86 | 5.87 | 5.79 | 5.73 | 5.75 | 5.76 | 5.76
31 | O=P(O)(O)CCCl [Ethephon] | > 200 | 5.96 | 5.93 | 5.97 | 5.94 | 6.03 | 6.05 | 5.88
32 | CCCC(=O)OCC [Ethyl butyrate] | > 200 | 5.9 | 5.93 | 5.96 | 6.03 | 5.94 | 5.91 | 5.82
33 | CCCCCCOCCO [Ethylene glycol monohexyl ether] | > 200 | 5.81 | 6.03 | 5.9 | 5.93 | 5.72 | 5.89 | 5.77
34 | S=C1NCCN1 [Ethylenethiourea] | > 200 | 6.18 | 5.97 | 6.08 | 6.19 | 6.12 | 6.12 | 5.69
35 | CCOC(=O)c1ccc(O)cc1 [Ethylparaben] | > 200 | 5.98 | 5.82 | 5.93 | 5.81 | 5.84 | 5.84 | 5.74
36 | C=CCc1ccc(O)c(OC)c1 [Eugenol] | > 200 | 5.89 | 5.9 | 5.93 | 5.98 | 5.91 | 5.87 | 5.77
37 | CCN(Cc1cccc(S(=O)(=O)O)c1)c1ccc(C(=C2C=CC(=[N+](CC)Cc3cccc(S(=O)(=O)O)c3)C=C2)c2ccccc2S(=O)(=O)[O-])cc1 [FD & C Blue no. 1] | > 200 | 5.85 | 5.87 | 5.91 | 5.88 | 5.89 | 5.92 | 5.89
38 | O=S(=O)(O)c1ccc(N=Nc2c(O)ccc3cc(S(=O)(=O)O)ccc23)cc1 [FD&C Yellow no. 6] | > 200 | 5.95 | 5.86 | 5.74 | 5.85 | 5.89 | 5.91 | 5.84
39 | CCc1cc(C2=C(C(=O)O)N(c3ccccc3C(F)(F)F)S(=O)(=O)c3ccccc32)cc2c1OCO2 [Fandosentan potassium salt] | > 200 | 5.81 | 5.82 | 5.89 | 5.85 | 5.75 | 5.75 | 5.69
40 | Cc1ccn2nc(S(=O)(=O)Nc3c(F)cccc3F)nc2n1 [Flumetsulam] | > 200 | 5.91 | 5.95 | 6.03 | 6.05 | 5.93 | 6.02 | 5.88
41 | C#CCN1C(=O)COc2cc(F)c(N3C(=O)C4=C(CCCC4)C3=O)cc21 [Flumioxazin] | > 200 | 5.98 | 5.91 | 5.92 | 5.99 | 5.98 | 5.87 | 6
42 | CN(C)C(=O)Nc1cccc(C(F)(F)F)c1 [Fluometuron] | > 200 | 6.02 | 6.11 | 6.08 | 6.02 | 5.87 | 6.07 | 5.78
43 | COC(=O)CSc1cc(/N=c2\sc(=O)n3n2CCCC3)c(F)cc1Cl [Fluthiacet-methyl] | > 200 | 5.92 | 5.93 | 5.96 | 5.96 | 5.98 | 5.95 | 5.92
44 | Nc1nc(=O)c2nc(CNc3ccc(C(=O)N[C@@H](CCC(=O)O)C(=O)O)cc3)cnc2[nH]1 [Folic acid] | > 200 | 6.04 | 5.96 | 5.91 | 6.04 | 6.02 | 6 | 5.82
45 | O=Cc1ccco1 [Furfural] | > 200 | 5.92 | 5.88 | 5.88 | 5.91 | 5.95 | 5.83 | 5.82
46 | CC(C)=CCC/C(C)=C/CO [Geraniol] | > 200 | 5.92 | 5.94 | 5.89 | 6.03 | 5.99 | 6.04 | 5.72
47 | OCC1CO1 (centres undefined) [Glycidol] | > 200 | 5.87 | 5.79 | 5.81 | 5.79 | 5.78 | 5.49 | 5.83
48 | CCCCCCC(=O)OCC [Heptanoic acid, ethyl ester] | > 200 | 5.88 | 5.93 | 5.82 | 6.08 | 5.85 | 5.89 | 6.02
49 | CCCCCCCCCCCCCCCC [Hexadecane] | > 200 | 5.93 | 5.9 | 5.89 | 5.89 | 5.86 | 5.83 | 5.72
50 | C1N2CN3CN1CN(C2)C3 [Hexamethylenetetramine] | 5 | 5.69 | 5.77 | 5.6 | 5.54 | 5.51 | 5.41 | 5.6
51 | N#CCCCCC#N [Hexanedinitrile] | > 200 | 5.89 | 5.82 | 5.87 | 5.81 | 5.96 | 5.75 | 5.8
52 | CCCCCC(=O)O [Hexanoic acid] | > 200 | 5.99 | 5.88 | 5.83 | 5.84 | 5.83 | 5.87 | 5.79
53 | NS(=O)(=O)c1cc2c(cc1Cl)NCNS2(=O)=O [Hydrochlorothiazide] | > 200 | 5.86 | 5.85 | 5.85 | 5.83 | 5.76 | 5.46 | 5.83

— the supplement of paper PMC4858399
